In one test the target is T1, IRAK-M (Homo sapiens, UniProt Q9Y616).
T1 sequence (Q9Y616 1-596): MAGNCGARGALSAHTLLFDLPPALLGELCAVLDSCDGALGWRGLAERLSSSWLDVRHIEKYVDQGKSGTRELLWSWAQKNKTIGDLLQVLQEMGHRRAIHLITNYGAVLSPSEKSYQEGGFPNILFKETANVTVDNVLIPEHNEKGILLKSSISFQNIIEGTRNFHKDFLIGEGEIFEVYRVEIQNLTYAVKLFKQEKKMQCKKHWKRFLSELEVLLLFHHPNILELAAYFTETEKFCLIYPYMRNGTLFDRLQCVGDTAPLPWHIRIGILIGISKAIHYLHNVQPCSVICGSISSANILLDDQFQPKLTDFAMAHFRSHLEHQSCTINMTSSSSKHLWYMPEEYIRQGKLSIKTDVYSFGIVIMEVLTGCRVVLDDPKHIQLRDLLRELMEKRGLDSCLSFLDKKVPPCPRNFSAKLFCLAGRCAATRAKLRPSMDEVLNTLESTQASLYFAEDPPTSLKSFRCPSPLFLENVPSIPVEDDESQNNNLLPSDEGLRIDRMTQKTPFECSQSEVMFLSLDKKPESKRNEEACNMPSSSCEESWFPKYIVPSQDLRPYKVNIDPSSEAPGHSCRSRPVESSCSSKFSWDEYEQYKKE
Briefly: IRAK-M binding inhibitory activity (KINOMEscan active site-dependent competitive assay). Further details: purchased Eurofins Discover X. The note with it: for remaining binding at 1 µM: concentration of the test compound 1 μM, first symbol of cell, read-out: IRAK-M binding inhibition activity % Ctrl; for IC50: second symbol of cell, read-out: IRAK-M binding inhibition IC50 value. Put shortly:
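Active site-dependent competition binding assay (KINOMEscan) against human IRAK-M. Result expressed as % Ctrl = (compound signal − positive control signal)/(DMSO signal − positive control signal) × 100, where DMSO = 100% Ctrl and control compound = 0% Ctrl.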

Test [1] has as its target T2, human XIAP_BIR3 domain purified protein (Homo sapiens, UniProt P98170).
T2 construct: purchased R & D
Kind of test: XIAP binding inhibitory activity (HTRF, b-Smac ligand). The note with it: for inhibition at 3 µM: concentration of the test compound 3 μM, first symbol of cell, read-out: XIAP binding inhibition rate; for IC50: second symbol of cell, read-out: XIAP binding inhibition IC50 value. On the procedure:
Human XIAP binding inhibitory activity was measured by the Homogeneous Time Resolved Fluorescence (HTRF) method with using commercially available human XIAP_BIR3 domain purified protein (R & D) and as a ligand a Smac N-terminal peptide (AVPIAQK (SEQ ID NO: 1)) (hereinafter referred to as “b-Smac”; Peptide Research Laboratories, Inc.) biotinylated at the C-terminus according to a conventional method.
The HTRF method will be described in detail below.
The test compound diluted with a reaction buffer (25 mM HEPES Buffer containing 100 mM NaCl, 0.1% BSA, and 0.1% triton X-100, pH 7.5) was added to a 384-well white shallow bottom plate (Greiner 784076) at 1 μL/well and flash centrifuged for 30 seconds. Subsequently, human XIAP_BIR3 domain purified protein was diluted with the reaction buffer to obtain a 90 nM sample diluent, and the resultant sample diluent was added to the above-mentioned white superficial plate at 4.5 μL/well and flash centrifuged for 30 seconds. Subsequently, b-Smac diluted to 90 nM with the reaction buffer was added to the above-mentioned white superficial plat at 4.5 μL/well and flash centrifuged for 30 seconds. A mixed solution of Anti-6 HIS-Cryptate (Eu^3+ Cryptate-conjugated mouse monoclonal antibody anti-6 Histidine; cisbio) and Streptavidin-XL^eat (Highgrade XL665-conjugated streptavidin; cisbio) both diluted 100-fold with HTRF detection buffer (cisbio) at a volume ratio of 1:1 was added to the above white superficial plate at 10 μL/well. After flash centrifuging the white shallow bottom plate for 30 seconds, the white shallow bottom plate was left at room temperature for 4 hours or more in the dark. The white superficial plate after being left was subjected to fluorescence intensity measurement (excitation wavelength: 320 nm, fluorescence wavelength: 665 nm and 615 nm) by EnVision (Perkin Elmer). The binding inhibition rate (%) was calculated based on the HTRF ratio in the presence of the test compound to the HTRF ratio in the absence of the test compound (fluorescence intensity at 665 nm/fluorescence intensity at 615 nm).
The XIAP binding inhibition rate (%) of test compounds was evaluated.

The values below come from patent publication US20220402935A1, “HETEROCYCLIC COMPOUND” (FIMECS, INC., priority 2019, published 2022).

Structures can show the parent of a compound that is named as a salt. Bounds are passed on as bounds.

T2 sequence (P98170 252-356 limits assumed): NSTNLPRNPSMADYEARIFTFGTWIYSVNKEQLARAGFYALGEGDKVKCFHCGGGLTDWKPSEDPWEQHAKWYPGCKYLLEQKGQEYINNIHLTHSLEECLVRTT

`CN[C@@H](C)C(=O)N[C@H](C(=O)N1CCN(C(=O)c2cc3cc(F)c(F)cc3n2CC(=O)N2CCC[C@@H]2COc2cc(CN3CCC(Oc4ccnc5ccsc45)CC3)on2)CC1)C1CCCCC1` [Example 31, (S)-N-((S)-1-cyclohexyl-2-(4-(5,6-difluoro-1-(2-oxo-2-((R)-2-(((5-((4-(thieno[3,2-b]pyridin-7-yloxy)piperidin-1-yl)methyl)isoxazol-3-yl)oxy)methyl)pyrrolidin-1-yl)ethyl)-1H-indole-2-carbonyl)piperazin-1-yl)-2-oxoethyl)-2-(methylamino)propanamide]: the remaining binding at 1 µM on IRAK-M lay within 25 to 50%. In test [1], the inhibition at 3 µM was in the range of 25 to 50%.
As for `CN[C@@H](C)C(=O)N[C@H](C(=O)N1CCN(C(=O)c2cc3cc(F)ccc3n2CC(=O)N2CCOC[C@H]2COc2cc(CN3CCC(Oc4ccnc5ccsc45)CC3)on2)[C@@H](C)C1)C1CCCCC1` [Example 47, (S)-N-((S)-1-cyclohexyl-2-((S)-4-(5-fluoro-1-(2-oxo-2-((S)-3-(((5-((4-(thieno[3,2-b]pyridin-7-yloxy)piperidin-1-yl)methyl)isoxazol-3-yl)oxy)methyl)morpholino)ethyl)-1H-indole-2-carbonyl)-3-methylpiperazin-1-yl)-2-oxoethyl)-2-(methylamino)propanamide], the IC50 on IRAK-M was in the range of 1000 to 3000 nM. In test [1], the inhibition at 3 µM is greater than 25%.
The matching figures for `CN[C@@H](C)C(=O)N[C@H](C(=O)N1CCN(C(=O)c2cc3cc(F)ccc3n2CC(=O)N2CCOC[C@@H]2COc2cc(CN3CCC(Oc4ccnc5ccsc45)CC3)on2)[C@@H](C)C1)C1CCCCC1` [Example 46, (S)-N-((S)-1-cyclohexyl-2-((S)-4-(5-fluoro-1-(2-oxo-2-((R)-3-(((5-((4-(thieno[3,2-b]pyridin-7-yloxy)piperidin-1-yl)methyl)isoxazol-3-yl)oxy)methyl)morpholino)ethyl)-1H-indole-2-carbonyl)-3-methylpiperazin-1-yl)-2-oxoethyl)-2-(methylamino)propanamide]: 100 to 300 nM and greater than 25%.
Regarding `CN[C@@H](C)C(=O)N[C@@H](Cn1cccn1)C(=O)N1CCN(C(=O)c2c(C(=O)N(C)CCOCCOCCOc3cc(CN4CCC(Oc5ccnc6ccsc56)CC4)on3)c3cc(F)ccc3n2C)CC1` [Example 15, 5-fluoro-N,1-dimethyl-2-(4-((S)-2-((S)-2-(methylamino)propanamido)-3-(1H-pyrazol-1-yl)propanoyl)piperazine-1-carbonyl)-N-(2-(2-(2-((5-((4-(thieno[3,2-b]pyridin-7-yloxy)piperidin-1-yl)methyl)isoxazol-3-yl)oxy)ethoxy)ethoxy)ethyl)-1H-indole-3-carboxamide], the remaining binding at 1 µM on IRAK-M lay in the range of 25 to 50%. In test [1], the IC50 lay in the range of 300 to 3000 nM.
`CN[C@@H](C)C(=O)N[C@H](C(=O)N1CCN(C(=O)c2ccc3c(c2)cc(C)n3CCOCCOc2cc(CN3CCC(Oc4ccnc5ccsc45)CC3)on2)CC1)C1CCCCC1` [Example 54, (S)-N-((S)-1-cyclohexyl-2-(4-(2-methyl-1-(2-(2-((5-((4-(thieno[3,2-b]pyridin-7-yloxy)piperidin-1-yl)methyl)isoxazol-3-yl)oxy)ethoxy)ethyl)-1H-indole-5-carbonyl)piperazin-1-yl)-2-oxoethyl)-2-(methylamino)propanamide]: the remaining binding at 1 µM at IRAK-M fell in the range of 25 to 50%. The IC50 in test [1] is less than 300 nM.
For `CN[C@@H](C)C(=O)N[C@H](C(=O)N1CCN(C(=O)c2cc3cc(F)c(F)cc3n2CC(=O)N2CCOC[C@@H]2COc2cc(CN3CCC(Oc4ccnc5ccsc45)CC3)on2)CC1)C1CCCCC1` [Example 45, (S)-N-((S)-1-cyclohexyl-2-(4-(5,6-difluoro-1-(2-oxo-2-((R)-3-(((5-((4-(thieno[3,2-b]pyridin-7-yloxy)piperidin-1-yl)methyl)isoxazol-3-yl)oxy)methyl)morpholino)ethyl)-1H-indole-2-carbonyl)piperazin-1-yl)-2-oxoethyl)-2-(methylamino)propanamide] the same measures were 25 to 50% and 3000 to 30000 nM.
For `CN[C@@H](C)C(=O)N[C@H](C(=O)N1CCN(C(=O)c2ccc3c(c2)cc(C)n3CCOCCOCCOCCOc2cc(CN3CCC(Oc4ccnc5ccsc45)CC3)on2)CC1)C1CCCCC1` [Example 53, (S)-N-((S)-1-cyclohexyl-2-(4-(2-methyl-1-(2-(2-(2-(2-((5-((4-(thieno[3,2-b]pyridin-7-yloxy)piperidin-1-yl)methyl)isoxazol-3-yl)oxy)ethoxy)ethoxy)ethoxy)ethyl)-1H-indole-5-carbonyl)piperazin-1-yl)-2-oxoethyl)-2-(methylamino)propanamide] the same measures were less than 25% and 300 to 3000 nM.
With `CN[C@@H](C)C(=O)N[C@H](C(=O)N1CCN(C(=O)c2ccc3c(c2)c(F)c(C)n3CCOCCOCCOc2cc(CN3CCC(Oc4ccnc5ccsc45)CC3)on2)CC1)C1CCCCC1` [Example 57, (S)-N-((S)-1-cyclohexyl-2-(4-(3-fluoro-2-methyl-1-(2-(2-(2-((5-((4-(thieno[3,2-b]pyridin-7-yloxy)piperidin-1-yl)methyl)isoxazol-3-yl)oxy)ethoxy)ethoxy)ethyl)-1H-indole-5-carbonyl)piperazin-1-yl)-2-oxoethyl)-2-(methylamino)propanamide], at IRAK-M, the remaining binding at 1 µM was 25 to 50%. Besides, the IC50 in test [1] lay within 300 to 3000 nM.
`CN[C@@H](C)C(=O)N[C@H](C(=O)N1CCN(C(=O)c2c(C(=O)NCCOCCOCCOc3cc(CN4CCC(Oc5ccnc6ccsc56)CC4)on3)c3cc(F)c(F)cc3n2C)CC1)C1CCCCC1` [Example 5, 2-(4-((S)-2-cyclohexyl-2-((S)-2-(methylamino)propanamido)acetyl)piperazine-1-carbonyl)-5,6-difluoro-1-methyl-N-(2-(2-(2-((5-((4-(thieno[3,2-b]pyridin-7-yloxy)piperidin-1-yl)methyl)isoxazol-3-yl)oxy)ethoxy)ethoxy)ethyl)-1H-indole-3-carboxamide]: the figures for the IC50 (on IRAK-M; in test [1]) were 300 to 1000 nM and 300 to 3000 nM, respectively.
Take `CN[C@@H](C)C(=O)N[C@H](C(=O)N1CCN(C(=O)c2c(C(=O)N(C)CCOCCOCCOc3cc(CN4CCC(Oc5ccnc6ccsc56)CC4)on3)c3cc(F)ccc3n2C)CC1)C(C)(C)O` [Example 16, 5-fluoro-2-(4-((S)-3-hydroxy-3-methyl-2-((S)-2-(methylamino)propanamido)butanoyl)piperazine-1-carbonyl)-N,1-dimethyl-N-(2-(2-(2-((5-((4-(thieno[3,2-b]pyridin-7-yloxy)piperidin-1-yl)methyl)isoxazol-3-yl)oxy)ethoxy)ethoxy)ethyl)-1H-indole-3-carboxamide]: the remaining binding at 1 µM at IRAK-M is 25 to 50%. Also, in test [1], the IC50 was in the range of 300 to 3000 nM.
On to `C[C@@H]1CN(CC(=O)N2CCN(C(=O)c3cc4cc(F)c(F)cc4n3C)C[C@H]2C)[C@@H](COCCOCCOCCOc2cc(CN3CCC(Oc4ccnc5ccsc45)CC3)on2)CN1` [Example 17, 1-((R)-4-(5,6-Difluoro-1-methyl-1H-indole-2-carbonyl)-2-methylpiperazin-1-yl)-2-((2R,5R)-5-methyl-2-((2-(2-(2-((5-((4-(thieno[3,2-b]pyridin-7-yloxy)piperidin-1-yl)methyl)isoxazol-3-yl)oxy)ethoxy)ethoxy)ethoxy)methyl)piperazin-1-yl)ethan-1-one hydrochloride], for which the IC50 on IRAK-M was 300 to 1000 nM; in test [1], less than 300 nM.
